Source: paper PMC8302598, “Rapid discovery of self-assembling peptides with one-bead one-compound peptide library” (Nature Communications, 2021)
Where “and” joins values, the source holds several entries; their conditions need not be identical. Equal values may be shown once. Entries after “also recorded” stand apart in the source; their conditions may differ.

Legend:
HeLa cells [1] = test: Cell uptake pathway analysis (4 °C and endocytosis inhibitors); type: cell-based; conditions: for Cell uptake in the presence of amiloride and M-β-CD: 50 μM peptide; for Cell uptake in the presence of amiloride and M-β-CD / Cell uptake mechanism: amiloride 2 mM, M-β-CD 5 mM; for Cell uptake at 4 °C: FITC-labeled nano-assembly (3% labeled), 4 °C vs 37 °C; for Cell uptake mechanism: 50 μM, 37 or 4 °C, chlorpromazine 50 μM, CLSM, n=3
Description: Finally, we examined the biological effects and cellular distribution of the eight self-assembling peptides on HeLa cells. […] In order to observe the nanomaterials under fluorescent microscopy, each peptide preparation was spiked with 3% of the same peptide N-terminally labeled with FITC, and then added to HeLa cells at a final concentration of 40 μM. […] After 4 h of incubation with the peptide assemblies, the cells were observed under a fluorescent microscope (Figs. 4c, d and Supplementary 22). […] It is important to note that LDFPI nanoparticle was small (8 nm diameter) even after 4 h incubation. Its small size may in part explain its ability to pass through the nuclear pore complexes[32],[33]. […] To evaluate the cell uptake mechanism of peptide assemblies (YFTEF, ISDNL, and FGFDP) into the cytoplasm, we treated the cells at 4 °C or with various endocytosis inhibitors (Supplementary Fig. 23). […]
Supplementary Figure 23 . Cell uptake pathway analysis for FITC-labeled pentapeptide assemblies YFTEF, ISDNL and […]. a) CLSM images of HeLa cells incubated with pentapeptides (50 μ M ) at di fferent temperatures (37 or 4 °C) and in the presence of various endocytosis inhibitors, such as amiloride (2 mM), M-β-CD (5 mM), and chlorpromazine (50 μM). The scale bar is 10 μm. b) Relevant quantitative analysis of images from ‘a’. 3% of the assembled peptides was N-terminally labeled with FITC, E rror ba rs represent Standard Deviation (n=3). […]
To elucidate the cell uptake pathways of pentapeptides, we quantified the fluorescence intensity of the HeLa cells after incubation with FITC-labeled nano-assembly of YFTEF, ISDNL, FAGFT, FGFDP, at 37 and 4 °C, respectively (3% of the peptide assembly were N-terminally labeled with FITC for tracking). There were nearly no uptake of pentapeptides by HeLa cells at 4 °C, which is consistent with mechanism of cell uptake by endocytosis. We have also examined the effects of cell uptake by various endocytosis inhibitors: amiloride (2 mM, inhibitor of endocytosis), M-β-CD (5 mM, inhibitor of caveolae-dependent endocytosis), and chlorpromazine (50 μM, inhibitor of clathrin-dependent endocytosis).
(1 picture or pasted object on this page, not shown here)
Figure R11. Cell uptake pathway detection. a) CLSM images of HeLa cells incubated with pentapeptides (50 μM) at different temperatures (37 or 4 °C) and in the presence of various endocytosis inhibitors, such as amiloride (2 mM), M-13-CD (5 mM), and chlorpromazine(50 μM), respectively. The scale bar is 10 μm. b) Relevant quantitative analysis in ‘a’. […]

HeLa cells [2] = test: Time-dependent co-localization of FITC-labeled peptides with lysosomes (CLSM); type: cell-based; conditions: 50 μM; for Pearson correlation coefficient, peptide vs lysosomes, 2 h: peptide for 2 h; for Pearson correlation coefficient, peptide vs lysosomes, 4 h: peptide for 2 h and DMEM for 2 h; for Pearson correlation coefficient, peptide vs lysosomes, 8 h: peptide for 2 h and DMEM for 6 h
Description: Supplementary Figure 24. a) Time-dependent (2, 4, 8 h) CLSM images for monitoring and quantitatively analyzing uptake of fluorescent peptide assemblies (YFTEF, ISDNL, and FGFDP at 50 μM) by HeLa cells. The scale bar is 10 μm. b) Corresponding colocalization analysis of images from ‘a’. […]
Regarding the entrance of nanoparticles into HeLa cells, we have carried out additional experiments to address reviewer’s concern. To track the biodistribution of these peptides in the cytosol, peptides YFTEF, ISDNL and FGFDP were labeled by addition of FITC-labeled peptides (FITC-YFTEF, FITC-ISDNL, FITC-FGFDP) at 3% level, respectively, prior to self-assembly, and then incubated with HeLa cells for 2 h. The incubated cells were then washed with PBS three times and further incubated with Dulbecco's modified eagle medium without peptide for another 2 and 6 h. The lysosomes of the cells were stained with red fluorescence after 2 (peptide for 2 h), 4 (peptide for 2 h and DMEM for 2 h), or 8 h (peptide for 2 h and DMEM for 6 h) incubation, followed by CLSM observation.
For ISDNL, good co-localization (Pearson correlation coefficient: 0.92) between peptides and lysosomes […]
lysosomes (colocalization from 0.92 at 2 h, to 0.76 at 4 h and 0.69 at 8 h).
ISDNL based nanoparticles could escape from lysosomes over time.
For YFTEF, good co-localization (yellow fluorescence) between YFTEF (green fluorescence) and with […]
The co-localization efficiency for YFTEF and lysosomes remained high over time (4 h, 0.93; 8 h, 0.91).
For FGFDP, the Pearson correlation coefficient of lysosome was determined to be about 0.7 for 2 (0.74), 4 (0.79), 8 h (0.72). It seems that FGFDP might have escaped from lysosomes prior to the 2 h time point.
In order to confirm this hypothesis, we did the co-localization study at earlier time points: 30 min to 1 h.
The results reveal that FGFDP increased the distribution in the lysosome from 30 min (Pearson correlation coefficient: 0.59) to 1 h (Pearson correlation coefficient: 0.94), and then decreased to 0.74 at 2h. These […]
escape from lysosomes sometime between 1-2 h.

[3] = Appearance and TEM of 30 mM peptide in water; type: physicochemical; conditions: for Nanostructure under TEM: 30 mM in H2O; for Appearance of peptide in water: 30 mM in water, sonicated 3 min
Description: To further characterize these self-assembling peptides, we selected two positive peptides (FFVDF and YFTEF) and a negative control peptide (PFTTR) for the following studies: Fourier transform infrared (FT-IR) spectroscopy, UV−Vis spectra, and transmission electron microscopy (TEM).
Pentapeptides monomers were dissolved in DMSO at a concentration of 5.0 mM, followed by quick injection into water at a volume ratio of 1:99 for DMSO and H2O to obtain the nanomaterials solution (50 μM). For 30 mM pentapeptide solution, the pentapeptide was dissolved in water and sonicated for 3 min.
The pentapeptide solution with the concentration of 20 μM (10 μL) was placed dropwise onto a copper mesh for 5 min, then most of the liquid was removed through a filter paper. Ten microliters of uranyl acetate solution were employed to stain the samples for 5 min, followed by drying the spare liquid with the filter. Finally, the copper mesh was washed with 10 μL of deionized water, which was blotted after staining and drying at room temperature. All of the samples were observed by TEM (Tecnai G2 20 S-TWIN) at an accelerating voltage of 200 kV.

[4] = Turbidity test (transmittance spectra); type: physicochemical; conditions: 20 μM peptide in water
Description: To further confirm the peptide assembling in water, the solutions of pentapeptide were diluted to 20 μM for turbidity test.

[5] = FITC-labeled peptide/Lyso-Tracker co-localization

Row | Nanostructure under TEM [3] | Appearance of peptide in water [3] | Transmittance at 400 nm [4] [%] | Substance | Cell uptake in the presence of amiloride and M-β-CD (HeLa cells [1]) | Cell uptake at 4 °C (HeLa cells [1]) | Pearson correlation coefficient, peptide vs lysosomes, 2 h (HeLa cells [2]; 3% FITC-labeled peptide) | Pearson correlation coefficient, peptide vs lysosomes, 4 h (HeLa cells [2]) | Pearson correlation coefficient, peptide vs lysosomes, 8 h (HeLa cells [2]) | Cell uptake mechanism (HeLa cells [1]) | Pearson correlation coefficient, peptide vs lysosomes, 30 min (HeLa cells [2]; 3% FITC-labeled peptide, 30 min) | Pearson correlation coefficient, peptide vs lysosomes, 1 h (HeLa cells [2]; 3% FITC-labeled peptide, 1 h) | Time of escape from lysosomes (HeLa cells [2]; [5]) | Retention in lysosomes (HeLa cells [2]; [5])
1 |  |  |  | FAGFT [self-assembling pentapeptide identified from OBOC library] | significantly decreased | nearly no uptake |  |  |  |  |  |  |  | 
2 |  |  |  | ISDNL [self-assembling pentapeptide identified from OBOC library] | significantly decreased | nearly no uptake | 0.92 | 0.76 | 0.69 | caveolae-dependent endocytosis and micropinocytosis |  |  |  | 
3 |  |  |  | FGFDP [self-assembling pentapeptide identified from OBOC library] |  | nearly no uptake | 0.74 | 0.79 | 0.72 | both caveolae-dependent and clathrin-dependent endocytosis | 0.59 | 0.94 | 1 to 2 h and ~1.5 h | 
4 | entangled fibrous network | milky hydrogel | 98 | YFTEF [self-assembling pentapeptide identified from OBOC library] |  | nearly no uptake | 0.92 | 0.93 | 0.91 | clathrin dependent endocytosis |  |  |  | remained in lysosomes at 8 h; also recorded: remained in lysosomes for 8 h without obvious escape
5 | entangled fibrous network | milky white solution | 88 | FFVDF [self-assembling pentapeptide identified from OBOC library, forms nanofibers] |  |  |  |  |  |  |  |  |  | 
